Results: patent publication US9505798B2, “Steroid compounds as RORyt modulators and uses thereof” (New York University, priority 2010, dated 2016)
Read-outs that look alike come from different tables or passages of the source.

What was measured:
[1] = molecular target: T1, human RORγ LBD (Homo sapiens, UniProt P51449); experiment: In vitro binding and competition assay (fluorescence polarization, fluorescein-labeled 25-hydroxycholesterol)
T1 construct: Human RORγ LBD (residues 262-518); 6×His-tag (N); thrombin cleavage site (N); made in house; host or cells: E. coli BL21-CodonPlus(DE3)-RIL, pET46 Ek/Lic vector
Description: All DNA constructs were generated by PCR-based methodology and confirmed by sequencing. […] IL-17a, IFN-γ, IL-4, and CCR6 protein expression was examined by intracellular or surface staining according to the manufacturer's protocol.
The cells were induced with 0.5 mM IPTG at 16° C. overnight, then collected and lysed in 20 mM Tris-HCl (pH 8.0), 500 mM NaCl, 20 mM imidazole and 10% glycerol. Supernatant was loaded onto a HisTrap™ FF crude 5 mL column on an AKTAxpress HPLC system. The protein was eluted with a 20-500 mM imidazole gradient, dialyzed overnight against 20 mM Tris-HCl (pH 8.0) and 200 mM NaCl, and further purified on a Q Sepharose™ Fast Flow anion exchange column (Amersham Biosciences). The flow-through fraction containing pure RORγ LBD protein was collected, and DTT was added to 10 mM immediately after calculating protein concentration by OD280. For the binding assay, 2 nM Fluorescein-labeled 25-hydroxycholesterol was incubated with purified RORγ LBD protein for 2 hrs at room temperature. Protein concentration was varied by serial dilution in binding buffer (20 mM Tris-HCl (pH 8.0), 200 mM NaCl, 10 mM DTT). Fluorescent polarization signals were measured with a Beacon 2000 (PanVera).

[2] = molecular target: T2, human RORγt (Homo sapiens, UniProt P51449); experiment: IL-17a induction in human CD4+ T cells transduced with RORαd, RORβ or RORγt; assay type: cell-based
T2 construct: expressed in transfected cells; host or cells: human CD4+ T cells (cord blood or adult blood), lentiviral HDV-IRES-GFP/HSA vectors
T2 sequence (P51449 1-497 isoform P51449-2): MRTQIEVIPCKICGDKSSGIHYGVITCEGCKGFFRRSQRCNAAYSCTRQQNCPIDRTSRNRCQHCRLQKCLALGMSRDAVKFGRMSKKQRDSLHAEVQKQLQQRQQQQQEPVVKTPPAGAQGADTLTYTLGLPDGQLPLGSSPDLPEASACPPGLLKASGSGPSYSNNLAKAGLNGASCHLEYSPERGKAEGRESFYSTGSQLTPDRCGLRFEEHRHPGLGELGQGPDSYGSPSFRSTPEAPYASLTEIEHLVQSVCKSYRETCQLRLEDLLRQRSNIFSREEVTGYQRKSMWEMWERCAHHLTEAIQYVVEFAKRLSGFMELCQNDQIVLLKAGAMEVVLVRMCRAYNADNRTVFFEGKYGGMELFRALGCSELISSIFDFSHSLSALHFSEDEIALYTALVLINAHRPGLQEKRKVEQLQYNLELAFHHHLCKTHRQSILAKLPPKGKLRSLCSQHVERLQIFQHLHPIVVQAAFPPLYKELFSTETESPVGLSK
Description: GFP expressing cells were gated for analysis. DMSO, Dig(dhd) (40 μM) or Dig(sal) (10 μM) was added 6-8 h after viral transduction. c, Flow cytometry of the production of IL-17a and IFN-γ by human naive cord blood T cells cultured for six days in the presence of IL-2, IL-23, and IL-1β, with various concentrations of TGF-β. DMSO, Dig(dhd), or Dig(sal) at indicated concentrations (μM) was added 16 h after cytokine addition.
Blood samples were obtained from the New York Blood Center. Mononuclear cells were prepared from buffy coats from healthy adult donors or from cord blood, using FicollPAQUE gradients. CD4^+ T cells were magnetically selected (autoMACS, Miltenyi). Adult memory CD4^+ T cell subsets were further purified as CD3^+CD4^+CD25^− CD45RO^+CCR6^+CD161^+ by cell sorting on a FACSAria (BD). Naive CD4^+ T cells were isolated from cord blood as CD3^+CD4^+CD45RA^+HLA-DR^−CD25^−DAPI^−. Memory cells were activated with anti-CD3/CD28 coated beads (1 bead/cell) in T cell media (see above) supplemented with 100 U/mL IL-2 (Peprotech), 10 ng/mL IL-1b and 10 ng/mL IL-23 (eBioscience). Naive cells were activated with anti-CD3/CD28 beads and cultured with the same cytokines, and TGF-b (0, 0.1, 1, or, 10 ng/mL) (Peprotech), in XVIVO-20 (Lonza) media. […] Naive CD4^+ T cells, cultured in XVIVO-20 media supplemented 100 U/mL IL-2 (Peprotech), were transduced with RORad-IRES-GFP or RORγt-IRES-GFP on day 1 and analyzed on day 6. GFP expressing cells were gated for analysis. DMSO or compounds were added 6-8 hours after the viral transduction.
Blood samples were obtained from the New York Blood Center. Mononuclear cells were prepared from buffy coats from healthy adult donors or from cord blood, using FicollPAQUE gradients. CD4^+ T cells were magnetically selected (autoMACS, Miltenyi). Adult memory CD4+ T cell subsets were further purified as CD3^+CD4^+CD25^−CD45RO^+CCR6^+CD161^+ by cell sorting on a FACSAria (BD). […] Naive CD4+ T cells, cultured in XVIVO-20 media supplemented with 100 U/mL IL-2 (Peprotech), were transduced with RORαd-IRES-GFP or RORγt-IRES-GFP on day 1 and analyzed on day 6. […]

Structure (SMILES) | IC50 [1] [µM] | RORγt-mediated IL-17a induction (versus RORαd) ([2]; 40 μM, FIG. 3b) | IC50 ([1]; in vitro competition assay, human RORγ LBD, read-out: IC50, displacement of fluorescein-labeled 25-hydroxycholesterol) [µM] | RORαd-, β- or γt-mediated induction of IL-17a ([2]; human T cells expressing murine Na+/K+-ATPase)
CC1O[C@@H](OC2C(C)O[C@H](OC3C(C)O[C@@H](O[C@H]4CC[C@@]5(C)[C@H](CC[C@@H]6[C@@H]5C[C@@H](O)[C@]5(C)[C@@H](C(CO)CCO)CC[C@]65O)C4)C[C@H]3O)C[C@H]2O)C[C@@H](O)C1O (stereo partly shown) [Compound 13, 20,22-Dihydrodigoxin-21,23-diol] | 12 | selectively suppressed |  | 
C[C@H]1O[C@@H](O[C@H]2[C@@H](O)C[C@H](O[C@H]3[C@@H](O)C[C@H](O[C@H]4CC[C@@]5(C)[C@H](CC[C@@H]6[C@@H]5C[C@@H](O)[C@]5(C)[C@@H](C7=CC(=O)OC7)CC[C@]65O)C4)O[C@@H]3C)O[C@@H]2C)C[C@H](O)[C@@H]1O [Digoxin] |  |  | 4.1 | inhibited only RORγt-mediated induction of IL-17a
